Drawing on article PMC6262321, “New Pim-1 Kinase Inhibitor From the Co-culture of Two Sponge-Associated Actinomycetes” (Frontiers in Chemistry, 2018), this text covers IC50 for 13 compounds.

Where two headings read alike, the source gives them in different places.

The test system of assay [1] is human colon adenocarcinoma HT-29. Description: MTT antiproliferative assay, HT-29. The assay is classed as cell-based. The following applies: mean of 3 independent experiments, read-out: Antiproliferative activity IC50 ± S.D., HT-29.
In assay [2] the test system is lung adenocarcinoma H1650. Description: MTT antiproliferative assay, H1650. The class given is cell-based. The note with it: mean of 3 independent experiments, read-out: Antiproliferative activity IC50 ± S.D., H1650. How it is done: Cell proliferation was evaluated in cell lines by the MTT assay in triplicates. 10^4 cells were plated in a 96-well microtiter plate in a final volume of 100 μl of culture medium. Cells were treated for 24 h with test compound at 37 °C with 5% CO2. After treatment, the cells were immediately incubated with 10 μl MTT (5.0 mg/mL) for 4 h at 37°C. The cells were then lysed in 100 μl of lysis buffer (isopropanol, conc. HCl and Triton X-100) for 10 min at room temperature and 300 rpm/min shaking. The enzymatic reduction of MTT to formazan crystals that dissolved in DMSO was quantified by photometry at 570 nm. […] 5-Flurouracil was used as a positive control.

Assay [3] relates to human promyelocytic leukemia HL-60. Description: MTT antiproliferative assay, HL-60. The assay is classed as cell-based. The following applies: mean of 3 independent experiments, read-out: Antiproliferative activity IC50 ± S.D., HL-60 (head prints HL-6).
The target in another assay is T1, Pim-1 kinase (Homo sapiens, UniProt P11309).
T1 construct: purchased Cell Signaling Technology
Description: Pim-1 kinase assay (HTScan Kinase Assay). The assay is classed as biochemical.

The test system of another assay is Pim-1. Also noted: method as in Nakano et al., 2012. The note with it: ligand of PDB code 3umw; ref Nakano et al., 2012; read-out: Pim-1 IC50 of co-crystalized ligand; cited from earlier work.
Where [4] appears, read: Homo sapiens, NCI-H1650, 24 h treatment.
[5] abbreviates: 50 ng Pim-1, 200 μM ATP, 1.5 μM biotinylated BAD Ser112 peptide, 30 min, mean of 3 independent experiments, read-out: In-vitro Pim-1 kinase inhibitory activity IC50 ± S.D.
The mark [6] stands for this setting: Homo sapiens, HT-29, 24 h treatment.
The mark [7] stands for this setting: Homo sapiens, HL-60, 24 h treatment.

T1 sequence (P11309 whole entry): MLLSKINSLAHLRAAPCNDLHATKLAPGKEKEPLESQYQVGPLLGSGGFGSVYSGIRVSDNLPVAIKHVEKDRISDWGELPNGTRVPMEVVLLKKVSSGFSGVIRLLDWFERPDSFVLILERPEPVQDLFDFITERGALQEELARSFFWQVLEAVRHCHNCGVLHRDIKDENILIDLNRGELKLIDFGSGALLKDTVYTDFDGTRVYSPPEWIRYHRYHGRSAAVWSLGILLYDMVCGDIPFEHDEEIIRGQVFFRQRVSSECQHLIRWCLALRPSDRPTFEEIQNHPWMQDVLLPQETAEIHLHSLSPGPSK

For `O=c1[nH]cc(F)c(=O)[nH]1` [5-Flurouracil, reference compound], the figures for the IC50 in assay [1] (24 h treatment), in assay [2] (24 h treatment) and in assay [3] (24 h treatment) were 0.3 ± 0.35 µM, 0.5 ± 0.67 µM and 0.2 ± 0.43 µM, respectively.

As to `COc1ccc(/C=C/C(=N)/C=C2/C(=O)Nc3cc(Br)ccc32)cc1` [Compound 1, (E)-6-bromo-3-((E)-2-imino-4-(4-methoxyphenyl)but-3-en-1-ylidene)indolin-2-one], the IC50 in assay [2] (setting [4]) was greater than 100 µM.

Take `CC(=O)C[C@@]1(O)C(=O)Nc2cc(Br)ccc21` [Compound 2, (S) enantiomer of (R)-6-Bromo-3-hydroxy-3-(2 oxopropyl)indolin-2-one]: the half-maximal inhibitory concentration (IC50) on Pim-1 kinase (setting [5]) was greater than 20 µM; in assay [1] (setting [6]), greater than 100 µM; in assay [2] (setting [4]), greater than 100 µM; in assay [3] (setting [7]), greater than 100 µM.

For the compound `O=C1Nc2cc(Br)ccc2[C@@]1(O)c1c[nH]c2ccccc12` [Compound 3, (S) 6-bromo-3-hydroxy-3-(1H-indol-3-yl) indolin-2-one], in assay [2] (setting [4]), the IC50 was greater than 100 µM.

With `C[C@@H]1C[C@H]2CC[C@H](O2)[C@H](C)C(=O)O[C@@H](C)C[C@@H]2CC[C@@H](O2)[C@@H](C)C(=O)O[C@H](C)C[C@H]2CC[C@H](O2)[C@H](C)C(=O)O[C@@H](C)C[C@@H]2CC[C@@H](O2)[C@@H](C)C(=O)O1` [Compound 4, Nonactin], the IC50 on Pim-1 kinase was greater than 20 µM; in assay [1] (setting [6]), greater than 100 µM; in assay [2] (setting [4]), greater than 100 µM; in assay [3] (setting [7]), greater than 100 µM.

For the compound `CC(c1c[nH]c2ccccc12)c1c[nH]c2ccccc12` [Compound 5, vibrindole], the concentration for half-maximal inhibition (IC50) was greater than 20 µM at Pim-1 kinase (setting [5]), greater than 100 µM in assay [1] (setting [6]), greater than 100 µM in assay [2] (setting [4]) and greater than 100 µM in assay [3] (setting [7]).

On to `O=Cc1c[nH]c2ccccc12` [Compound 6, indole-3-carbaldehyde], for which the IC50 on Pim-1 kinase (setting [5]) was greater than 20 µM; in assay [1] (setting [6]), greater than 100 µM; in assay [2] (setting [4]), greater than 100 µM; in assay [3] (setting [7]), greater than 100 µM.

Turning to `OCCc1c[nH]c2ccccc12` [Compound 7, tryptophol], the IC50 at Pim-1 kinase (setting [5]) is greater than 20 µM; in assay [1] (setting [6]), greater than 100 µM; in assay [2] (setting [4]), greater than 100 µM; in assay [3] (setting [7]), greater than 100 µM.

On to `O=C(O)C(=O)Cc1c[nH]c2ccccc12` [Compound 8, indole-3-pyruvic acid], for which the IC50 at Pim-1 kinase (setting [5]) was greater than 20 µM; in assay [1] (setting [6]), greater than 100 µM; in assay [2] (setting [4]) it was greater than 100 µM; in assay [3] (setting [7]), greater than 100 µM.

In the case of `Cc1c[nH]c2ccccc12` [Compound 9, skatole], the 50% inhibitory concentration (IC50) at Pim-1 kinase (setting [5]) was greater than 20 µM; in assay [1] (setting [6]) it was greater than 100 µM; in assay [2] (setting [4]) it was greater than 100 µM; in assay [3] (setting [7]) it was greater than 100 µM.

Take `O=C(O)c1ccc2ccccc2c1O` [Compound 10, 1-hydroxy-2-naphthoic acid]: the IC50 is greater than 20 µM on Pim-1 kinase (setting [5]), greater than 100 µM in assay [1] (setting [6]), greater than 100 µM in assay [2] (setting [4]) and greater than 100 µM in assay [3] (setting [7]).

As for `O=C(O)c1cc(O)c2ccccc2c1O` [Compound 11, 1,4 dihydroxy-2-naphthoic acid], the half-maximal inhibitory concentration (IC50) on Pim-1 kinase (setting [5]) is greater than 20 µM; in assay [1] (setting [6]) it was greater than 100 µM; in assay [2] (setting [4]), greater than 100 µM; in assay [3] (setting [7]), greater than 100 µM.

As for `COc1ccc2c(c1CN1CCNCC1)OC(=Cc1n[nH]c3ccccc13)C2=O` [co-crystalized ligand], the IC50 in the assay on Pim-1 is 0.003 µM.
